Results as given in US8470534B2, “Methods of predicting resistance or sensitivity to therapies for cancer” (priority 2006, dated 2013).

How the values were obtained:
[1] = tested on: MCF7 donor or siRb xenograft tumors; experiment: Nude mouse xenograft therapeutic study; assay type: in vivo, nude mice
Description: The xenograft model system is then utilized to test the response of RB-deficient tumors to CDDP therapy. Tumors are developed in the flanks of mice by injecting MCF7 donor or siRb cells into the flanks of mice and implanting a […] (E2) pellet into the back. When tumors reached 100-110 mm^3, mice received 5 mg/kg CDDP every 4 days for 5 courses.
To assess the role of RB in the therapeutic response of MCF7 cells in vivo, the xenograft model is again employed. Upon the attainment of tumors of approximately 100-120 mm^3, mice are deprived of estrogen and treated with Tam. […] (FIG. 4F). […] All tumors are weighed upon exclusion, and RB-deficient tumors are more than 3 times heavier than control tumors following Tam therapy (FIG. 4G).
Five- to 8-week-old female ovariectomized athymic nude mice are anesthetized, and an E2 pellet (1.7 mg/pellet, 90-day release) or placebo is surgically implanted in the back. Following implantation, 200 μl of a PBS- and phenol red-free Matrigel matrix basement membrane, solution (3:1) containing 2×10^6 cells is injected subcutaneously into the flank, or contralaterally where noted. Tumor volume is measured with calipers every 4 days using the equation V=0.52 (width)^2 ×(length). In the therapeutic studies, when tumor volume reaches 100-120 mm^3, animals are placed into 1 of 3 therapeutic groups (each group containing at least 6 animals): control animals retaining the estrogen pellet, antiestrogen-treated animals, or CDDP-treated animals. Animals in the antiestrogen treatment group are anesthetized, the estrogen pellet is surgically removed, and a Tam pellet (5 mg/pellet, 60-day release) implanted. The CDDP-treated animals receive 5 mg/kg CDDP injected i.p. on a q4dx5 schedule (every 4 days for 5 courses). All animals are injected i.p. with 150 mg/kg BrdU (Sigma-Aldrich) 1 hour prior to euthanization. Xenograft tumors are weighed and fixed in 10% neutral buffered formalin, paraffin embedded, and cut into 5-ÿm sections. For immunohistochemical staining, sections are deparaffinized in xylene and rehydrated through a graded series of ethanol/water solutions. A BrdU detection kit is utilized as recommended by the manufacturer. BrdU incorporation is scored in a blinded manner, and at least 500 cells per section are counted from several random fields.

[2] = tested on: MCF7, T47D, and Zr-75-1 cells; experiment: BrdU incorporation (cell-cycle checkpoint) after CDDP treatment; assay type: cell-based, human
Description: The RB and p53 tumor suppressors are known to be critical for induction of DNA damage checkpoints, and therapies inducing DNA damage are used as an additional line of treatment for ER-positive breast cancers resistant to hormonal therapy. Therefore, the role of these tumor suppressors in the response to therapeutic doses of DNA-damaging agents is investigated. Wild-type MCF7, T47D, and Zr-75-1 cells are treated with 0, 8, or 16 μM CDDP and labeled with BRDU to determine the effect of the agent on cell-cycle progression. […] To specifically probe the impact of RB in the response to DNA damage, T47D and Zr-75-1 polyclonal donor and siRb88 cells are utilized. […] To confirm these findings, MCF7 donor 1 and siRb28 cells are treated with either CDDP as described above or with 0, 2.5, or 5 Gy ionizing radiation (IR). […] To determine the long-term effect of DNA damage therapy upon proliferation, cell growth assays are performed wherein the RB-proficient and deficient MCF7 clones are plated at equal density and treated with 2.5 or […].
(§1) RB target gene upregulation is a prognostic indicator in human breast cancers. RB performs a myriad of functions, the most well understood being repression of the E2F family of transcription factors. To determine the specific influence of the E2F axis on bypassing therapy, an activator E2F is overexpressed in wild-type MCF7 cells. Specifically, cells are infected either with an adenovirus encoding E2F3 (ad-E2F3) or a control virus (Ad-LacZ) and are harvested 3 days after infection for immunoblot analysis of levels of known RB-E2F targets (FIG. 5A). […] As expected, no changes are detected in RB levels, and CDK4 serves as a loading control. In order to assess the response to therapeutic intervention, 3 days after infection Ad-E2F3- or AdLacZ-infected MCF7 cells are separated into 2 major treatment groups: hormone therapy and DNA damage therapy. The estrogen ablation group is then cultured in the absence of estrogen and in the presence of Tam and ICI as described above. Alternatively, the cells in the DNA damage therapy group are treated with 16 μM CDDP for 18 hours prior to washing or treatment with 5 Gy IR. Cells from both therapy groups are BrdU labeled, and the replicative fraction of treated cells is determined with respect to untreated control cells (FIG. 5B).
The MCF7, T47D, and Zr-75-1 cell lines are obtained from ATCC and propagated in DMEM containing 10% FS supplemented with 100 U/ml penicillin/streptomycin and 2 mM L-glutamine at 37° C. in air containing 5% CO2. […] Cells are infected with Ad-lacZ at a multiplicity of infection of 50, at which 95% of cells are infected (as determined by plaque assay in 293 cells) or with 2.7×10^11 virus particles/ml of Ad-E2F3 and cultured for 3 days prior to use. […]

[3] = tested on: MCF7, T47D, and Zr-75-1 cells; experiment: BrdU incorporation under hormone deprivation / antiestrogen (CDT, CDT/Tam, CDT/ICI); assay type: cell-based, human
Description: To understand the impact of RB deficiency on the response to hormone deprivation therapy, cells are cultured in CDT, CDT/Tam, or in the presence of pure antiestrogen, ICI182780 (CDT/ICI). Following treatment with these modalities, cells are labeled with BrdU to determine the influence of each agent on cell-cycle progression and the corresponding influence of RB knockdown on this response (FIG. 4B). These experiments are recapitulated in the polyclonal populations of T47D and Zr-75-1 donor and siRb88 cells (FIG. 4C). […] To elucidate the long-term growth effects of these therapies, cell proliferation assays are performed over 9 days. RB-proficient and -deficient MCF7 cells are seeded at equal densities and cultured in CDT/Tam (FIG. 4D). […] Similar results are evident in the same experiments with both T47D and Zr-75-1 RB-proficient and -deficient polyclonal pools (FIG. 4E).
as §1
To study the effect of estrogen depletion, cells are cultured for 72 hours in phenol red-free DMEM supplemented with 10% CDT serum with addition of 10^−9 M 4-HydroxyTam or 10^−6 M ICI where indicated. Cell growth assays are performed by trypsinizing cells and counting by trypan blue exclusion every 3 days.
Cells treated with IR are exposed to ^137Cs (dose rate: 0.67 Gy/min) at room temperature in tissue culture media. Culture with clinical grade CDDP for 18 hours is performed for all CDDP treatments. For all proliferation studies, cells are labeled with BrdU for 10 hours or 5 hours for LXSN/LXSN-p53dd infected cells, and BrdU immunofluorescence is performed as previously described. All BrdU results are expressed as a percentage of untreated control cells set to 100%, unless otherwise noted.

| SMILES | tumor response during treatment, RB-deficient tumors ([1]; RB-deficient MCF7 tumors versus control tumors, 5 mg/kg CDDP every 4 days for 5 courses) | tumor response during treatment ([1]; RB-proficient and RB-deficient MCF7 tumors, 5 mg/kg CDDP i.p. every 4 days for 5 courses) | tumor weight upon excision, tumors lacking RB relative to control tumors ([1]; following CDDP therapy) | cell-cycle arrest (replicative fraction, BrdU) ([2]; Ad-E2F3-infected versus control infected MCF7 cells, 16 μM CDDP for 18 hours) | DNA damage checkpoint (BrdU labeling) ([2]; MCF7 siRb28 versus donor 1 cells, CDDP 0, 8, or 16 μM) | BrdU incorporation following DNA damage ([2]; RB-deficient (siRb88) T47D and Zr-75-1 cells, 0, 8, or 16 μM CDDP) | effect on cell-cycle progression (BrdU labeling) ([2]; wild-type RB-positive MCF7, T47D, Zr-75-1 cells, 0, 8, or 16 μM CDDP for 18 hours, BrdU 10 hours) | cell-cycle arrest (replicative fraction, BrdU) ([3]; Ad-E2F3-infected versus control infected MCF7 cells, absence of estrogen plus agent) | cell-cycle inhibition by the agent (BrdU labeling) ([3]; RB-depleted cells (MCF7 siRb28, T47D and Zr-75-1 siRb88), CDT serum plus agent, 3 days) | cell-cycle progression (BrdU labeling) ([3]; cells harboring functional RB (MCF7, T47D, Zr-75-1 donor), CDT serum plus agent, 3 days, 10^−9 M 4-HydroxyTam or 10^−6 M ICI) |
| --- | --- | --- | --- | --- | --- | --- | --- | --- | --- | --- |
| N.N.[Cl][Pt][Cl] [CDDP, cis-diamminedichloroplatinum II] | regressed more rapidly | both tumor types regressed | less than half as much as control tumors | significantly reduced levels of cell-cycle arrest | RB deficiency promotes bypass of the DNA damage checkpoints | continue to incorporate BrdU efficiently | dose-dependent cell-cycle checkpoint |  |  |  |
| C[C@]12CC[C@@H]3c4ccc(O)cc4C[C@@H](CCCCCCCCC[S+]([O-])CCCC(F)(F)C(F)(F)F)[C@H]3[C@@H]1CC[C@@H]2O (stereo partly shown) [ICI182780] |  |  |  |  |  |  |  | significantly reduced levels of cell-cycle arrest | significantly reduced | elicit cell-cycle inhibition |
